Measured values reported in US6624182B1, “Hydroxyphenylvinylthiazoles” (Ciba Specialty Chemicals Corporation, priority 1999, dated 2003).

Experiments:
Experiment in all cases: Determination of the minimum inhibitory concentration (MIC value) in microtitre plates
[1] = test system: C. albicans; assay type: cell-based, Candida albicans ATCC 10231; conditions: optical density at 620 nm, 48 hours at 37° C., MIC = ≦20% growth; tested at 100; 10 and 1 ppm (approximate values); (2), (3), (4) at 120; 60; 30; 15; 7.5; 3.75 ppm
Description: (§1) Determination of the Minimum Inhibitory Concentration (MIC Value) in Microtitre Plates Nutrient Medium Casein/soybean flour/peptone bouillon for the preparation of preliminary cultures of the test bacteria and yeast. Mycological slant agar for the preliminary culture of moulds Examples of Test Microbes: Yeast: Candida albicans ATCC 10231 Procedure: The test substances are pre-dissolved in dimethyl sulfoxide (DMSO) and tested in a series of dilutions of 1:2. Bacteria and yeast are cultured overnight in CASO bouillon; the mould is cultured on myco-logical slant agar and sponged off with 10 ml of 0.85% sodium chloride solution (+0.1% Triton X-100). All the test microbes are adjusted to a germ count of 1−5×10^6 KBE/ml using 0.85% sodium chloride solution. The test substances are pre-pipetted into microtitre plates in an amount of 8 μl per well. Pre-diluted microbe suspensions are diluted 1:100 in CASO bouillon (bacteria and yeast) or Sabouraud 2% glucose bouillon (mould) and added to the test substances in an amount of 192 μl per well. The test batches are incubated for 48 hours at 37° C. (bacteria and yeast) or for 5 days at 28° C. (mould). After incubation, the growth is determined by means of the clouding of the test batches (optical density) at 620 nm in a microplate reader. The concentration of substance at which (compared with the growth control) a marked inhibition of growth (≦20% growth) of the test microbes can be observed is given as the minimum inhibitory concentration (MIC value). One microtitre plate is used per test microbe and substance concentration. All substances are tested in duplicate.

[2] = test system: S. aureus; assay type: cell-based; conditions: optical density at 620 nm, 48 hours at 37° C., MIC = ≦20% growth; tested at 100; 10 and 1 ppm (approximate values); (2), (3), (4) at 120; 60; 30; 15; 7.5; 3.75 ppm
Description: as §1, with “Bacteria: Staphylococcus hominis DMS 20328” for “Yeast: Candida albicans ATCC 10231”

[3] = test system: P. aeruginosa; assay type: cell-based, Pseudomonas aeruginosa CIP A-22; conditions: optical density at 620 nm, 48 hours at 37° C., MIC = ≦20% growth; tested at 100; 10 and 1 ppm (approximate values); (2), (3), (4) at 120; 60; 30; 15; 7.5; 3.75 ppm
Description: as §1, with “Bacteria: Pseudomonas aeruginosa CIP A-22” for “Yeast: Candida albicans ATCC 10231”

[4] = test system: E. coli; assay type: cell-based, Escherichia coli NCTC 8196; conditions: optical density at 620 nm, 48 hours at 37° C., MIC = ≦20% growth; tested at 100; 10 and 1 ppm (approximate values); (2), (3), (4) at 120; 60; 30; 15; 7.5; 3.75 ppm
Description: as §1, with “Bacteria: Escherichia coli NCTC 8196” for “Yeast: Candida albicans ATCC 10231”

[5] = test system: A. niger; assay type: cell-based, Aspergillus niger ATCC 6275; conditions: optical density at 620 nm, 5 days at 28° C., MIC = ≦20% growth; tested at 100; 10 and 1 ppm (approximate values); (2), (3), (4) at 120; 60; 30; 15; 7.5; 3.75 ppm
Description: as §1, with “Mould: Aspergillus niger” for “Yeast: Candida albicans”, “6275” for “10231”

COc1ccc(/C=C/c2nc(C(C)(C)C)cs2)c(O)c1 [Compound of formula (21)]
>100 ppm: MIC values in ppm C. albicans [1] | MIC values in ppm S. aureus [2] | MIC values in ppm P. aeruginosa [3] | MIC values in ppm E. coli [4] | MIC values in ppm A. niger [5]

CCc1csc(/C=C/c2cc(C)c(O)c(C)c2)n1 [Compound of formula (47)]
>100 ppm: MIC values in ppm C. albicans [1] | MIC values in ppm S. aureus [2] | MIC values in ppm P. aeruginosa [3] | MIC values in ppm E. coli [4] | MIC values in ppm A. niger [5]

Oc1cc(OCc2ccccc2)ccc1/C=C/c1nc(-c2ccccc2)cs1 [Compound of formula (60)]
>100 ppm: MIC values in ppm C. albicans [1] | MIC values in ppm S. aureus [2] | MIC values in ppm P. aeruginosa [3] | MIC values in ppm E. coli [4] | MIC values in ppm A. niger [5]

COc1cc(O)ccc1/C=C/c1nc(-c2ccccc2)cs1 [Compound of formula (61)]
>100 ppm: MIC values in ppm C. albicans [1] | MIC values in ppm S. aureus [2] | MIC values in ppm P. aeruginosa [3] | MIC values in ppm E. coli [4] | MIC values in ppm A. niger [5]

CCc1csc(/C=C/c2ccccc2O)n1 [Compound of formula (45)]
>100 ppm: MIC values in ppm C. albicans [1] | MIC values in ppm S. aureus [2] | MIC values in ppm P. aeruginosa [3] | MIC values in ppm E. coli [4] | MIC values in ppm A. niger [5]

COc1cc(/C=C/c2nc(-c3ccc(N4CCCC4)cc3)cs2)cc(O)c1OC [Compound of formula (34)]
>100 ppm: MIC values in ppm C. albicans [1] | MIC values in ppm S. aureus [2] | MIC values in ppm P. aeruginosa [3] | MIC values in ppm E. coli [4] | MIC values in ppm A. niger [5]

Oc1ccc(/C=C/c2nc(-c3ccc(N4CCCC4)cc3)cs2)cc1 [Compound of formula (27)]
>100 ppm: MIC values in ppm C. albicans [1] | MIC values in ppm S. aureus [2] | MIC values in ppm P. aeruginosa [3] | MIC values in ppm E. coli [4] | MIC values in ppm A. niger [5]

COc1cc(/C=C/c2nc(C(C)(C)C)cs2)ccc1O [Compound of formula (20)]
>100 ppm: MIC values in ppm C. albicans [1] | MIC values in ppm S. aureus [2] | MIC values in ppm P. aeruginosa [3] | MIC values in ppm E. coli [4] | MIC values in ppm A. niger [5]

CCc1csc(/C=C/c2ccc(O)cc2OC)n1 [Compound of formula (50)]
>100 ppm: MIC values in ppm C. albicans [1] | MIC values in ppm S. aureus [2] | MIC values in ppm P. aeruginosa [3] | MIC values in ppm E. coli [4] | MIC values in ppm A. niger [5]

Oc1ccccc1/C=C/c1nc(-c2ccc(N3CCCC3)cc2)cs1 [Compound of formula (33)]
>100 ppm: MIC values in ppm C. albicans [1] | MIC values in ppm S. aureus [2] | MIC values in ppm P. aeruginosa [3] | MIC values in ppm E. coli [4] | MIC values in ppm A. niger [5]

COc1cc(/C=C/c2nc(-c3ccccc3)cs2)cc(O)c1OC [Compound of formula (57)]
>100 ppm: MIC values in ppm C. albicans [1] | MIC values in ppm S. aureus [2] | MIC values in ppm P. aeruginosa [3] | MIC values in ppm E. coli [4] | MIC values in ppm A. niger [5]

CCOc1cc(/C=C/c2nc(CC)cs2)ccc1O [Compound of formula (42)]
>100 ppm: MIC values in ppm C. albicans [1] | MIC values in ppm S. aureus [2] | MIC values in ppm P. aeruginosa [3] | MIC values in ppm E. coli [4] | MIC values in ppm A. niger [5]

Oc1cccc(/C=C/c2nc(-c3ccc(F)cc3)cs2)c1 [Compound of formula (5)]
>100 ppm: MIC values in ppm C. albicans [1] | MIC values in ppm S. aureus [2] | MIC values in ppm P. aeruginosa [3] | MIC values in ppm E. coli [4] | MIC values in ppm A. niger [5]

CCc1csc(/C=C/c2cccc(C)c2O)n1 [Compound of formula (48)]
>100 ppm: MIC values in ppm C. albicans [1] | MIC values in ppm S. aureus [2] | MIC values in ppm P. aeruginosa [3] | MIC values in ppm E. coli [4] | MIC values in ppm A. niger [5]

CCOc1cc(/C=C/c2nc(C(C)(C)C)cs2)ccc1O [Compound of formula (19)]
>100 ppm: MIC values in ppm C. albicans [1] | MIC values in ppm S. aureus [2] | MIC values in ppm P. aeruginosa [3] | MIC values in ppm E. coli [4] | MIC values in ppm A. niger [5]
